According to ChEMBL document CHEMBL1144835, “Bioactive metabolites from the South African marine mollusk Trimusculus costatus” (J Nat Prod, 2008):

Assay: Cytotoxicity against human WHCO1 cells after 24 hrs by MTT assay
Type: functional, cell-based
Conditions: WHCO1, 24 h

| SMILES | IC50 |
| --- | --- |
| CC(=O)O[C@@H]1[C@@H](OC(C)=O)C(C)=C(CC/C(C)=C/CO)[C@@]2(C)CCCC(C)(C)[C@H]12 | 25 µM |
| CC(=O)OC/C=C(\C)CCC1=C(C)[C@H](OC(C)=O)[C@@H](OC(C)=O)[C@H]2C(C)(C)CCC[C@]12C | 84 µM |
| CC(C)CCC[C@@H](C)[C@H]1CC[C@@H](C2=CC(=O)C3=C[C@H](O)CC[C@]3(C)C2=O)[C@]1(C)CCO | 3 µM |
| CC(=O)O[C@H]1CC(C)(C)[C@@H]2[C@H](OC(C)=O)[C@@H](OC(C)=O)C(C)=C(CC/C(C)=C/CO)[C@@]2(C)C1 | 24 µM |
